Experimental data published in patent US20020137779A1, “Use of L-2-oxothiazolidine-4-carboxylic acid for the treatment of type 2 diabetes” (Advanced Biochemicals Inc., priority 2001, published 2002).

Columns and labels:
[1] = system: pancreatic islets of type 2 diabetes mice; assay: morphological examination of pancreatic islets, hematoxylin-eosine and anti-insulin immunohistochemistry (Example 6); format: in vivo, mouse; conditions: 80 mg/kg for four weeks, 120 min after glucose 1 g/kg i.p.
Protocol: Sixth step: Identifying the ability of insulin secretion of the control group and the type 2 diabetes mouse to which 80 mg/kg of L-2-oxothiazolidine-4-carboxylic acid for 4 weeks determined by immunohistochemical staining with anti-insulin antibody.
L-2-oxothiazolidine-4-carboxylic acid or PBS alone was administered to 3 mice in each group, 1 g/kg of glucose was intraperitoneally injected in the fasted state, and they were sacrificed by cervical dislocation after 120 min. of the injection. Immediately, the abdominal region was incised, pancreases were then removed from the mice and fixed more than 12 hours in a cold solution of 4% paraformaldehyde in PBS(pH 7.4, Sigma, USA). Pancreas separated free of intestine and adipose tissue(fatty tissue), rinsed three times with fresh fixing solution, and the fixed tissues were processed routinely for paraffin embedding. The tissue sections were cut off at 5 ^μm interval using microtome(Sandon, Germany) from the paraffin embedding, and adhered to a slide coated with poly-L-lysine(Sigma, USA) for immunohistochemistry.
To remove the paraffin from the slides on which pancreatic tissue was coated, the slides were repeatedly treated with xylene for 5 min., and the tissue sections were rehydrated with a series of 100-70% alcohol and incubated with PBS(pH 7.4) for 5 minutes. […]

[2] = body weight during four weeks of oral administration (Example 4); format: in vivo, mouse; conditions: 40-80 mg/kg orally for four weeks; measured at one, two and four week points
Protocol: (§1) Seven week old type 2 diabetes mice were maintained as in EXAMPLE 2. 0.2 ml of PBS (pH 7.4) was given to a control group twice a day for 1-4 weeks, and 40-80 mg/kg of L-2-oxothiazolidine-4-carboxylic acid dissolved in 0.2 ml of PBS of which pH was adjusted to 7.4 with 3 N NaOH(Junsei, Japan) was orally administered to an experimental group.

[3] = system: type 2 diabetes mice (C57BL/KsJ-db/db Jcl); assay: serum insulin levels after glucose intake, single oral administration (Example 3); format: in vivo, mouse; conditions: for concentration of insulin / increase of insulin concentration vs control group: 30 min after glucose intake
Protocol: Third step; Determining the abilities of lowering blood glucose level and increasing insulin secretion ability following glucose loading, by administering a single dose of 8-80 mg/kg of L-2-oxothiazolidine-4-carboxylic acid to a type 2 diabetes mouse, Fourth step; Examining the effect of long term administration of L-2-oxothiazolidine-4-carboxylic acid on lowering blood glucose levels,
Under the same breeding condition as in EXAMPLE 2, no feed but water was given to 7 week old type 2 diabetes mice (C57BL/KsJ-db/db Jel, Clea, Japan) for 13 hours. 0.2 ml of PBS was orally given to the control group(5 mice) using feeding needle, and 8-80 mg/kg of L-2-oxothiazolidine-4-carboxylic acid dissolved in 0.2 ml of PBS was orally administered to the experimental group(5 mice). After 5 hours of drug administration, 1 g/kg of glucose (Sigma, USA) was intraperitoneally injected and the mice were maintained for 30 to 120 minutes. The blood glucose levels of type 2 diabetes mice at various time points were measured by the glucose oxidase method using a glucose analyzer(One-touch Basic, Lifescan, USA), and serum insulin levels were determined using a radioimmunoassay, as described in EXAMPLE 2.

[4] = system: type 2 diabetes mice (C57BL/KsJ-db/db Jcl); assay: blood glucose levels after oral administration for 1-4 weeks (Example 4); format: in vivo, mouse; conditions: for duration of the blood glucose lowering effect: after glucose intake
Protocol: The chemical L-2-oxothiazolidine-4-carboxylic acid was orally administered to diabetes mice(C57BL/KsJ-db/db Jcl) with a single dose of 3.0-400 mg/kg once in the state of empty stomach or 40-80 mg/kg twice a day for 1-4 weeks continuously.
as §1
The results of blood glucose levels shown in FIG. 7 were obtained, after 40-80 mg/kg of L-2-oxothiazolidine-4-carboxylic acid was administered to type 2 diabetes mice twice a day for two weeks and after glucose was subsequently given, as described in […]

[5] = ED50 by linear regression method; format: in vivo; conditions: calculated by linear regression method; read-out: ED50 (50% of maximum effective dose)
Description: ED50 is defined as 50% of maximum effective dose calculated by linear regression method. The term “treat” refers to the ability of the compounds to either relieve, alleviate, or slow the progression of the patient's disease.

[6] = 40 mg/kg for one week, 60 min after glucose intake
[7] = 40 mg/kg for two weeks, 60 min after glucose addition
[8] = 40 mg/kg for two weeks, 120 min after glucose intake
[9] = 80 mg/kg for four weeks, 120 min after glucose intake
[10] = 80 mg/kg for four weeks, fasted state (13 hours)
[11] = 80 mg/kg for one week, 60 min after glucose intake
[12] = 80 mg/kg for one week, 120 min after glucose intake
[13] = 80 mg/kg for one week, fasted state (13 hours)
[14] = 80 mg/kg for two weeks, 60 min after glucose addition
[15] = 80 mg/kg for two weeks, 120 min after glucose intake

Compound: O=C1NC(C(=O)O)CS1 [OTC, L-2-oxothiazolidine-4-carboxylic acid]
- densities of the capsule and the β-cells in the capsule, hematoxylin-eosine staining [1]: high
- positive response to anti-insulin antibody of pancreatic β-islet cells [1]: distinctly increased
- weight of the mice [2]: no weight difference
- concentration of insulin ([3]; 40 mg/kg single oral dose): 1,650±103 pmol/1
- increase of insulin concentration vs control group ([3]; 40 mg/kg single oral dose): 26.5%
- concentration of insulin ([3]; 80 mg/kg single oral dose): 1,760±94 pmol/l
- increase of insulin concentration vs control group ([3]; 80 mg/kg single oral dose): 35.4%
- duration of the improvement of insulin secretion after the intake of glucose ([3]; 40-80 mg/kg single oral dose): about 120 min
- blood glucose level ([4]; 40 mg/kg for four weeks, 180 min after glucose intake): 50.50 ± 44.21 mg/dL
- blood glucose level [4, 6]: 507.50 ± 52.81 mg/dL
- decrease of blood glucose level vs control group [4, 6]: 16.8%
- blood glucose level [4, 7]: 699.00 ± 58.91 mg/dL
- lowering effect of blood glucose levels compared to the control group [4, 7]: 15.83%
- blood glucose level [4, 8]: 599.50 ± 52.46 mg/dL
- lowering effect of blood glucose levels compared to the control group [4, 8]: 22.2%
- blood glucose level ([4]; 40 mg/kg for two weeks, fasted for 13 hours): 306.30 ± 24.06 mg/dL
- blood glucose level [4, 9]: 539 ± 23.60 mg/dL
- lowering effect of blood glucose levels compared to the control group [4, 9]: 38.8%
- blood glucose level [4, 10]: 297.00 ± 26.51 mg/dL
- more effective in lowering blood glucose levels than the control group [4, 10]: 32.5%
- blood glucose level [4, 11]: 277.50 ± 40.89 mg/dL
- decrease of blood glucose level vs control group [4, 11]: 54.51%
- blood glucose level [4, 12]: 158.00 ± 28.33 mg/dL
- decrease of blood glucose level vs control group [4, 12]: 72.11%
- blood glucose level [4, 13]: 116.00 ± 119.74 mg/dL
- blood glucose level relative to the control group [4, 13]: 52.07%
- blood glucose level [4, 14]: 477.50 ± 58.91 mg/dL
- blood glucose level relative to the control group [4, 14]: 42.50%
- blood glucose level [4, 15]: 398.00 ± 28.33 mg/dL
- lowering effect of blood glucose levels compared to the control group [4, 15]: 48.81%
- blood glucose level ([4]; 80 mg/kg for two weeks, fasted for 13 hours): 301.50 ± 12.2 mg/dL
- duration of the blood glucose lowering effect ([4]; 40-80 mg/kg for four weeks): about 180 min
- duration of the blood glucose lowering effect ([4]; 40-80 mg/kg for one week): about 180 minutes
- duration of the blood glucose lowering effect ([4]; 40-80 mg/kg for two weeks): about 180 min
- increase of lowering effect of blood glucose levels compared to the control group ([4]; 40-80 mg/kg for two weeks, fasted for 13 hours): 11.5%
- ED50 [5]: 15 mg/kg
